Assay [1] relates to Plasma. The assay is described as follows: Anti-platelet aggregation in platelet-rich plasma of male Japanese white rabbit assessed as inhibition of ADP-induced platelet aggregation preincubated for 15 mins followed by ADP addition measured up to 10 mins by Born's turbidometric method. The assay is classed as functional, cell-free. As to conditions: Oryctolagus cuniculus.
For assay [2], the system named is HT-22. The assay is described as follows: Neuroprotective activity against H2O2-induced oxidative stress in mouse HT-22 cells assessed as cell viability at 10 uM preincubated for 2 hrs followed by H2O2 addition measured after 24 hrs by MTT assay (reference value: 55 +/- 4.6 %). The class given is functional. As to conditions: for Activity: time 26.0 hrs; for viability at 10 µM: time 26 hrs, read-out: Activity.

Active and inactive are the calls of the source. The rule behind the calls is not given here.

The term IC50 denotes the concentration needed to halve the response being measured.

On to `N#Cc1cccc(Nc2nc(-c3cccc(C#N)c3)ncc2C(=O)O)c1`, for which the IC50 in assay [1] stood at 7.79 µM. Moreover, the result in assay [2] was inactive.

Turning to `N#Cc1ccc(COn2c(-c3cccc(C#N)c3)nc(-c3ccccc3)c2C(=O)O)cc1`, in assay [1], the IC50 came to 3.33 µM. Moreover, in assay [2], the result was inactive.

As to `CC1(c2nc(-c3cccc(C#N)c3)n(OCc3ccc(C#N)cc3)c2C(=O)O)CCC1`, the IC50 in assay [1] was found to be 2.99 µM. In addition, the viability at 10 µM in assay [2] amounted to 72.4%.

Turning to `CCN(CC)c1nc(COn2c(-c3cccc(C#N)c3)nc(C(F)F)c2C(=O)O)cs1`, the IC50 in assay [1] amounted to 2.71 µM. Besides, in assay [2], the result was inactive.

Regarding `N#Cc1ccc(COn2c(-c3cccc(C#N)c3)nc(C(F)(F)F)c2C(=O)O)cc1`, the IC50 in assay [1] came out at 1.8 µM. Further, the viability at 10 µM in assay [2] was 75.6%.

In the case of `N#Cc1ccc(COn2c(-c3cccc(C#N)c3)nc(-c3nccs3)c2C(=O)O)cc1`, the IC50 in assay [1] is 4.52 µM. Also, the outcome in assay [2] was inactive.

Take `N#Cc1ccc(-c2ncc(C(=O)O)c(Nc3cccc(C#N)c3)n2)cc1`: in assay [1], the concentration for half-maximal inhibition (IC50) was > 10 µM. Further, the viability at 10 µM in assay [2] is 97.2%.

Take `N#Cc1ccc(COn2c(-c3cccc(C#N)c3)nc(-c3cscn3)c2C(=O)O)cc1`: the IC50 in assay [1] was > 10 µM. In assay [2], the result was inactive.

Consider `CCc1nc(-c2cccc(C#N)c2)n(OCc2ccc(C#N)cc2)c1C(=O)O`, for which the IC50 in assay [1] was 4.09 µM. Further, the viability at 10 µM in assay [2] came out at 70.6%.

In the case of `N#Cc1cccc(-c2nc(C(F)F)c(C(=O)O)n2OCc2csc(N3CCOCC3)n2)c1`, in assay [1], the IC50 came out at 4.7 µM. Further, the outcome in assay [2] was inactive.

As to `N#Cc1ccc(COn2c(-c3cccc(C#N)c3)nc(C3CC3(F)F)c2C(=O)O)cc1` (centres undefined), the IC50 in assay [1] worked out at 2.88 µM. Besides, the viability at 10 µM in assay [2] was 60.1%.

On to `N#Cc1ccc(COn2c(-c3cccc(C#N)c3)nc(-c3ccsc3)c2C(=O)O)cc1`, for which the IC50 in assay [1] was 1.39 µM. For the same compound, in assay [2], the outcome was inactive.

As for `N#Cc1ccc(COc2nc(-c3cccc(C#N)c3)ncc2C(=O)O)cc1`, in assay [1], the 50% inhibitory concentration (IC50) turned out to be 3.08 µM. For the same compound, in assay [2], the result was inactive.

Consider `N#Cc1ccc(Nc2nc(-c3cccc(C#N)c3)ncc2C(=O)O)cc1`, for which the IC50 in assay [1] was > 10 µM. Further, the viability at 10 µM in assay [2] came to 84.9%.

Consider `N#Cc1cccc(-c2ncc(C(=O)O)c(Oc3ccccc3C#N)n2)c1`, for which the IC50 in assay [1] worked out at 3.37 µM. In assay [2], the result was inactive.

For the compound `Cc1sc(N2CCOCC2)nc1COn1c(-c2cccc(C#N)c2)nc(C(F)F)c1C(=O)O`, the half-maximal inhibitory concentration (IC50) in assay [1] was 1.36 µM. In addition, in assay [2], the viability at 10 µM came to 64.6%.

`N#Cc1ccc(COn2c(-c3cccc(C#N)c3)nc(C3CCCCC3)c2C(=O)O)cc1`: the IC50 in assay [1] turned out to be 2.61 µM. In assay [2], the outcome was inactive.

In the case of `N#Cc1cccc(-c2nc(C(F)F)c(C(=O)O)n2OCc2nccs2)c1`, the half-maximal inhibitory concentration (IC50) in assay [1] amounted to 2.79 µM. For the same compound, the outcome in assay [2] was inactive.

Consider `CS(=O)(=O)Nc1cccc(Oc2nc(-c3cccc(C#N)c3)ncc2C(=O)O)c1`, for which, in assay [1], the IC50 was determined as 8.08 µM. Further, the viability at 10 µM in assay [2] came out at 79.1%.

In the case of `N#Cc1ccc(Oc2nc(-c3ccc(C#N)cc3)ncc2C(=O)O)cc1`, the IC50 in assay [1] worked out at 4.62 µM. Further, the viability at 10 µM in assay [2] was 91.3%.

`N#Cc1ccc(COn2c(-c3cccc(C#N)c3)nc(-c3ccccn3)c2C(=O)O)cc1`: the IC50 in assay [1] was found to be 9.2 µM. Besides, the result in assay [2] was inactive.

Regarding `N#Cc1ccc(COn2c(-c3cccc(C#N)c3)nc(C3CCC3)c2C(=O)O)cc1`, the IC50 in assay [1] amounted to 1.43 µM. Also, in assay [2], the outcome was inactive.

On to `N#Cc1ccc(COn2c(-c3cccc(C#N)c3)nc(-c3cccnc3)c2C(=O)O)cc1`, for which the IC50 in assay [1] is > 10 µM. The outcome in assay [2] was inactive.

As for `N#Cc1cccc(-c2ncc(C(=O)O)c(Nc3ccccc3C#N)n2)c1`, in assay [1], the IC50 is > 10 µM. For the same compound, in assay [2], the viability at 10 µM was 81%.

As to `N#Cc1cccc(COc2nc(-c3cccc(C#N)c3)ncc2C(=O)O)c1`, in assay [1], the IC50 is 2.67 µM. In addition, the viability at 10 µM in assay [2] was determined as 80.7%.

With `N#Cc1ccc(COn2c(-c3cccc(C#N)c3)nc(C3CC3)c2C(=O)O)cc1`, the IC50 in assay [1] turned out to be 2.51 µM. For the same compound, the outcome in assay [2] was inactive.

As to `N#Cc1ccc(COn2c(-c3cccc(C#N)c3)nc(C3CCCC3)c2C(=O)O)cc1`, the IC50 in assay [1] stood at 2.53 µM. The outcome in assay [2] was inactive.

Take `N#Cc1cccc(-c2ncc(C(=O)O)c(OCc3ccccc3C#N)n2)c1`: the IC50 in assay [1] was > 10 µM. In addition, the viability at 10 µM in assay [2] turned out to be 95.8%.

Turning to `N#Cc1ccc(COn2c(-c3cccc(C#N)c3)nc(C3CC(F)(F)C3)c2C(=O)O)cc1`, in assay [1], the IC50 is 3.11 µM. The result in assay [2] was inactive.

As to `N#Cc1ccc(COn2c(-c3cccc(C#N)c3)nc(-c3cccs3)c2C(=O)O)cc1`, in assay [1], the IC50 is > 10 µM. In addition, the result in assay [2] was inactive.

As for `CC(=O)Nc1cccc(Oc2nc(-c3cccc(C#N)c3)ncc2C(=O)O)c1`, the IC50 in assay [1] is 7.99 µM. Also, the viability at 10 µM in assay [2] was found to be 88.2%.

Regarding `CC1(c2nc(-c3cccc(C#N)c3)n(OCc3ccc(C#N)cc3)c2C(=O)O)CC1`, the IC50 in assay [1] worked out at 2.41 µM. In assay [2], the viability at 10 µM turned out to be 88.1%.

Consider `N#Cc1ccc(-c2ncc(C(=O)O)c(Oc3ccccc3C#N)n2)cc1`, for which the IC50 in assay [1] was 5.68 µM. Besides, the viability at 10 µM in assay [2] was 96.2%.

For the compound `CC(C)c1nc(-c2cccc(C#N)c2)n(OCc2ccc(C#N)cc2)c1C(=O)O`, the 50% inhibitory concentration (IC50) in assay [1] turned out to be 1.62 µM. Also, in assay [2], the outcome was inactive.

With `N#Cc1cccc(-c2nc(C(F)F)c(C(=O)O)n2OCc2ccncc2)c1`, the IC50 in assay [1] was determined as 5.34 µM. The outcome in assay [2] was inactive.

Turning to `N#Cc1cccc(-c2ncc(C(=O)O)c(Oc3cccnc3)n2)c1`, in assay [1], the half-inhibitory concentration (IC50) was > 10 µM. In addition, the viability at 10 µM in assay [2] came to 87.6%.

Take `N#Cc1ccc(Nc2nc(-c3ccc(C#N)cc3)ncc2C(=O)O)cc1`: the IC50 in assay [1] stood at 9.99 µM. Moreover, in assay [2], the viability at 10 µM amounted to 91.1%.

For the compound `N#Cc1ccc(-c2ncc(C(=O)O)c(OCc3ccccc3C#N)n2)cc1`, the IC50 in assay [1] is > 10 µM. Besides, the outcome in assay [2] was inactive.

As for `N#Cc1cccc(-c2nc(C(F)F)c(C(=O)O)n2OCc2cnco2)c1`, the IC50 in assay [1] turned out to be 2.18 µM. Moreover, the result in assay [2] was inactive.

Consider `N#Cc1ccc(-c2ncc(C(=O)O)c(Nc3ccccc3C#N)n2)cc1`, for which, in assay [1], the IC50 stood at 9.74 µM. For the same compound, the viability at 10 µM in assay [2] came to 97.8%.

On to `N#Cc1ccc(COn2c(-c3cccc(C#N)c3)nc(C(F)F)c2C(=O)O)cc1`, for which the IC50 in assay [1] was found to be 0.98 µM. Besides, in assay [2], the viability at 10 µM is 77.4%.

Take `N#Cc1ccc(Oc2nc(-c3cccc(C#N)c3)ncc2C(=O)O)cc1`: the IC50 in assay [1] was found to be 4.82 µM. Moreover, the outcome in assay [2] was inactive.

Turning to `CN(C)c1nc(COn2c(-c3cccc(C#N)c3)nc(C(F)F)c2C(=O)O)cs1`, the IC50 in assay [1] stood at 3.71 µM. Moreover, in assay [2], the viability at 10 µM amounted to 62.4%.

Take `N#Cc1ccc(COn2c(-c3cccc(C#N)c3)nc(-c3cnccn3)c2C(=O)O)cc1`: the IC50 in assay [1] was determined as 4.11 µM. In addition, in assay [2], the result was inactive.

`N#Cc1ccc(-c2ncc(C(=O)O)c(Oc3cccc(C#N)c3)n2)cc1`: the 50% inhibitory concentration (IC50) in assay [1] was 4.36 µM. Further, the viability at 10 µM in assay [2] turned out to be 98.9%.

For `N#Cc1cccc(-c2nc(C(F)F)c(C(=O)O)n2OCc2cscn2)c1`, the IC50 in assay [1] was 1.98 µM. Further, the viability at 10 µM in assay [2] was found to be 86.8%.

Turning to `[2H]C([2H])([2H])c1nc(-c2cccc(C#N)c2)n(OCc2ccc(C#N)cc2)c1C(=O)O`, the IC50 in assay [1] was found to be 3.43 µM. The viability at 10 µM in assay [2] was 73.1%.
